Source: patent publication US11401243B2, “Quinoline derived small molecule inhibitors of nicotinamide N-methyltransferase (NNMT) and uses thereof” (priority 2017, dated 2022)
Like-named read-outs stand apart in the source and are kept apart here. One block for each compound: values may come before it.

Experiments:
human NNMT (mt-hNNMT) = target: T1, human NNMT (mt-hNNMT) (Homo sapiens, UniProt P40261, E101A/E103A/K100A); experiment: NNMT activity assay (HPLC-UV detection of MNA), NNMT IC50 curves; settings: for IC50: NI = no observable inhibition
T1 sequence (P40261 1-261 K100A/E101A/E103A limits assumed): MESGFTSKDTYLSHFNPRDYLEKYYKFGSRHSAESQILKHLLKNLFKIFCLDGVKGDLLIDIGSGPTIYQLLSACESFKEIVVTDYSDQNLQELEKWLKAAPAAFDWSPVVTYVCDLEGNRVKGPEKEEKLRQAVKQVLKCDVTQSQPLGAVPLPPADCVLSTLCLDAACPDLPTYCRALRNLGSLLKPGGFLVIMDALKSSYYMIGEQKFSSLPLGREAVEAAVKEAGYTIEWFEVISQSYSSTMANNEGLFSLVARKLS

[1] = system: NNMT activity in 3T3-L1 pre-adipocytes and differentiated adipocytes; experiment: Quantitative measurement of NNMT reaction product 1-MNA in cultured cells (LC/MS/MS); format: cell-based; settings: 10 μM, 24 h
Method: Differentiation of 3T3-L1 pre-adipocytes. […] Briefly, standard culture media was supplemented with scheduled addition of adipogenic agents [3-isobutyl-1methyl xanthine (IBMX), Sigma Aldrich; MO, USA), dexamethasone (Sigma Aldrich; MO, USA), insulin (Gibco Life Technologies Inc.; Grand Island, N.Y., USA)] over 10 days to promote differentiation of 3T3-L1 fibroblasts into adipocytes; a combination of 1 mM IBMX, 1 μM dexamethasone, and 10 μg/ml of insulin in media were added to fully confluent 3T3-L1 fibroblasts for three days (days 0-3) to initiate differentiation. At day 3, the media was replaced with culture media supplemented with insulin (10 μg/ml). After day 6, cells were maintained in culture media until described experiments were begun (days 8-10).
Cellular 1-MNA concentrations were determined using an ultra-sensitive high-resolution AB Sciex 6500 Q-trap mass spectrometer coupled to an Agilent 1260 ultra-high pressure liquid chromatography (LC/MS/MS) system. Using multiple reaction monitoring (MRM) positive ion mode, the 1-MNA NNMT reaction product was quantified from peak area ratios using AB Sciex Analyst and MultiQuant 2.1 software and the parent precursor and Q3 masses set to m/z 137.1 and 94.1, respectively. Fragment ions at m/z of 92.1 and 77.9 were additionally used for the detection and confirmation of 1-MNA, respectively. […]. To determine the effect of NNMT inhibitor on NNMT activity in the pre-adipocytes and differentiated adipocytes (8×10^4 cells/well seeded prior to beginning differentiation), cells were treated with 30 μM inhibitor for 24 h. Similarly, to compare the relative effects of multiple NNMT inhibitors on NNMT activity in cultured adipocytes, differentiated adipocytes in 6-well plates were treated with 10 μM test compound for 24 h. Following treatment, media was replaced with 80% (v/v) methanol (cooled to −80° C.) containing 500 nmol 6-chloronicotinamide (6-CN) as an internal standard (IS) to extract cellular metabolites. Adherent cells were scrapped, then centrifuged at 4° C. and 13000 g for 15 min, and the resulting supernatants processed using established protocols. […]. Data were subsequently normalized to the IS peak area and transformed as % control values for cross-sample comparisons. […] Choice of inhibitor concentrations and time period was chosen based on the results from the MTT studies.

Caco-2 cells = experiment: Bi-directional permeability assay with Caco-2 cells; settings: Caco-2
[2] = as above; settings: human
[3] = system: 3T3-L1 pre-adipocytes cells; experiment: MTT cell viability assay; format: cell-based; settings: 3T3-L1 pre-adipocytes, 24 h
Method: Cells were treated for 24 h with 0.1-600 μM NNMT inhibitors in cell culture media. A 24 h time point was chosen based on a previous report of using this time period for transfecting or treating 3T3-L1 cells with NNMT anti-sense oligonucleotides or a small molecule NNMT product inhibitor (1-MNA), respectively, for phenotypic measures. MTT (3-(4,5-dimethylthiazol-2-yl)-2,5-diphenyltetrazolium bromide) (ATCC; Manassas, Va., USA) was added to each well and assayed according to the manufacturer's instructions. Absorbance corresponding to the amount of formazan dye produced by treated cells was normalized to that produced by control (untreated) cells to calculate % viable cells in the treated samples.

[4] = Parallel artificial membrane permeability assay (PAMPA); format: in vitro ADME; settings: for Permeability Classification (passive transport): BCS classification
Method: Samples were tested in triplicates in three separate experiments.

[5] = target: recombinant human NAMPT enzyme (Homo sapiens, UniProt P43490); experiment: NAMPT activity assay (fluorometric); format: biochemical; settings: concentrations between 30 and 600 μM (data not shown)
[6] = NNMT Inhibition IC50, mean ± SD of duplicate or triplicate measurements
[7] = 400 μM in PBS, 4 h, room temperature

Chain of recombinant human NAMPT enzyme (P43490 whole entry): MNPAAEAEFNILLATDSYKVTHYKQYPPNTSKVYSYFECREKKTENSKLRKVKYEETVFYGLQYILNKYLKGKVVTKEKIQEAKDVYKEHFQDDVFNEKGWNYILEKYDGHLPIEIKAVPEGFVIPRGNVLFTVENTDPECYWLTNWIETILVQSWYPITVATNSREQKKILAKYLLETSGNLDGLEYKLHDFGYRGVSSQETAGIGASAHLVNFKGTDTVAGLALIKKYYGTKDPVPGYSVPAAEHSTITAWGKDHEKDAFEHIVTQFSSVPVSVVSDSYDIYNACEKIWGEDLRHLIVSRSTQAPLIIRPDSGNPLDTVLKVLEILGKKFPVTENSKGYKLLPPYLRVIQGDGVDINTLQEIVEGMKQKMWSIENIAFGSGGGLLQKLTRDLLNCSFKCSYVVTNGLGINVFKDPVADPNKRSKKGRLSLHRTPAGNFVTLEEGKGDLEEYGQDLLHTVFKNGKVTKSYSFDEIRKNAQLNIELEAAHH

SMILES: OC(CBr)C[n+]1cc(Br)cc2ccccc21 (stereo not drawn) [2e]
IC50 (human NNMT (mt-hNNMT); [6]): > 1000 µM

SMILES: Cc1ccc2c(ccc[n+]2CC(=O)c2ccccc2)c1 [2i]
IC50 (human NNMT (mt-hNNMT); read-out: NNMT Inhibition IC50, mean ± SD of duplicate or triplicate measurements): > 1000 µM

SMILES: C[n+]1c(N)c(N)cc2ccccc21 [2m]
inhibitory activity against NNMT (in words) (human NNMT (mt-hNNMT)): inhibitory activity | IC50 (human NNMT (mt-hNNMT); [6]): 2.8 ± 0.5 µM | 1-MNA levels in differentiated adipocytes relative to control [1]: significantly decreased | Classification (active transport / efflux) (Caco-2 cells; listed as 2,3-diamine-1MQ): Moderate permeability | Classification (active transport / efflux) (Caco-2 cells; listed as 2,3-diamino-1MQ): moderate bi-directional active transport with moderate efflux ratio | efflux ratio at 2 h, 10 μM ([2]; Caco-2): 4.03 | Papp A→B at 2 h, 10 μM ([2]; Caco-2, pH 7.4): 5.27 ×10⁻⁶ cm/s | Papp B→A at 2 h, 10 μM ([2]; Caco-2, pH 7.4): 21.2 ×10⁻⁶ cm/s | cell viability ([3]; 300 μM): did not impact cell viability | cytotoxicity ([3]; 600 μM (highest concentration tested)): ~40% | Papp at 4 h, 400 μM ([4]; 400 μM in PBS, 4 h, room temperature, read-out: Flux): 3.9 ×10⁻⁶ cm/s | Permeability Classification (passive transport) ([4]; listed as 2,3-diamine-1MQ): High permeability | Permeability Classification (passive transport) ([4]; listed as 2,3-diamino-1MQ): high passive permeability

SMILES: C[n+]1cc(C#N)cc2ccccc21 [1e]
IC50 (human NNMT (mt-hNNMT); [6]): 23.8 ± 5.6 µM

SMILES: Cc1cc[n+](C)c2ccccc12 [1h]
IC50 (human NNMT (mt-hNNMT); [6]): 7.5 ± 2.2 µM

SMILES: Cc1ccc(C(F)(F)F)c2ccc[n+](C)c12 [2k]
inhibitory activity against NNMT (in words) (human NNMT (mt-hNNMT)): inhibitory activity | IC50 (human NNMT (mt-hNNMT); [6]): 87 ± 26.1 µM

SMILES: C[n+]1cccc2c(N)c(F)ccc21 [5-amino-6-fluoro-1MQ]
inhibition of NAMPT (in words) [5]: no inhibition

SMILES: CC[n+]1cccc2ccccc21 [1s]
IC50 (human NNMT (mt-hNNMT); [6]): 27.1 ± 5.4 µM

SMILES: C[n+]1cccc2cccc(O)c21 [1r]
IC50 (human NNMT (mt-hNNMT); [6]): 95.2 ± 21 µM

SMILES: COCC[n+]1cccc2ccccc21 [1t]
IC50 (human NNMT (mt-hNNMT); [6]): > 1000 µM

SMILES: C[n+]1cccc2ccccc21 [1a, 1-methylquinolinium]
IC50 (human NNMT (mt-hNNMT); [6]): 12.1 ± 3.1 µM | Flux [4, 7]: 0 cm/s | Permeability Classification (passive transport) [4]: No permeability | Permeability Classification (passive transport) ([4]; listed as 1-MQ): lacked passive diffusion properties

SMILES: c1ccc2ncccc2c1 [Quinoline]
Flux [4, 7]: 3.39e-05 cm/s | Permeability Classification (passive transport) [4]: High permeability

SMILES: CC(=O)C[n+]1cccc2cc(Cl)ccc21 [2g]
IC50 (human NNMT (mt-hNNMT); [6]): > 1000 µM

SMILES: O=C(C[n+]1cccc2ccccc21)c1ccccc1 [1u]
IC50 (human NNMT (mt-hNNMT); [6]): > 1000 µM

SMILES: CC(=O)C[n+]1cccc2cc(O)ccc21 [2h]
IC50 (human NNMT (mt-hNNMT); [6]): > 1000 µM

Second part, the compound after the results:

IC50 (human NNMT (mt-hNNMT); [6]): 8.7 ± 2.6 µM
SMILES: CC[n+]1ccc(C)c2ccccc21 [2a]

IC50 (human NNMT (mt-hNNMT); [6]): > 1000 µM
SMILES: CCC[n+]1cccc2cc(C)ccc21 [2f]

IC50 (human NNMT (mt-hNNMT); [6]): 40.6 ± 13 µM
SMILES: CC(=O)C[n+]1cccc2cccc(O)c21 [2d]

IC50 (human NNMT (mt-hNNMT); [6]): > 1000 µM
SMILES: Cc1ccc2c(ccc(C)[n+]2C)c1 [2n]
